{"source": "the kinase profiling compilation of Christmann-Franck et al. (2016)", "test_in_all_cases": "KINOMEscan competition binding", "details_in_all_cases": "compound 10.0 µM", "key": {"[1]": {"target": "YES1 (human) (UniProt P07947)", "sequence (P07947 whole entry, looked up)": "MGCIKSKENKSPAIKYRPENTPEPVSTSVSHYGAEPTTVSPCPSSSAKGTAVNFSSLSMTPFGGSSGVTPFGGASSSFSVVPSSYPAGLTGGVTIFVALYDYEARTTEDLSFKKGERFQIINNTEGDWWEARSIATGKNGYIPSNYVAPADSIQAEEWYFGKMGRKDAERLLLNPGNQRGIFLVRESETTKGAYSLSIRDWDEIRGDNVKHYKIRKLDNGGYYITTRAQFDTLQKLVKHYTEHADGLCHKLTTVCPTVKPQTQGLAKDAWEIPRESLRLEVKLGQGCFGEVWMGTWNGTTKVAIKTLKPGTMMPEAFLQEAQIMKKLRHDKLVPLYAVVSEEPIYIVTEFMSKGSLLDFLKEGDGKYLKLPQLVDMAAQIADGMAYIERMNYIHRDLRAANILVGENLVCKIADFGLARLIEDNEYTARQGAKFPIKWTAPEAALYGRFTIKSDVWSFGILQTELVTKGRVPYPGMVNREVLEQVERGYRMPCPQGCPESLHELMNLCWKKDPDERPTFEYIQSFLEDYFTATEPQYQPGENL"}, "[2]": {"target": "FER (human) (UniProt P16591)"}, "[3]": {"target": "MYO3A (human) (UniProt Q8NEV4)", "sequence (Q8NEV4 whole entry, looked up)": "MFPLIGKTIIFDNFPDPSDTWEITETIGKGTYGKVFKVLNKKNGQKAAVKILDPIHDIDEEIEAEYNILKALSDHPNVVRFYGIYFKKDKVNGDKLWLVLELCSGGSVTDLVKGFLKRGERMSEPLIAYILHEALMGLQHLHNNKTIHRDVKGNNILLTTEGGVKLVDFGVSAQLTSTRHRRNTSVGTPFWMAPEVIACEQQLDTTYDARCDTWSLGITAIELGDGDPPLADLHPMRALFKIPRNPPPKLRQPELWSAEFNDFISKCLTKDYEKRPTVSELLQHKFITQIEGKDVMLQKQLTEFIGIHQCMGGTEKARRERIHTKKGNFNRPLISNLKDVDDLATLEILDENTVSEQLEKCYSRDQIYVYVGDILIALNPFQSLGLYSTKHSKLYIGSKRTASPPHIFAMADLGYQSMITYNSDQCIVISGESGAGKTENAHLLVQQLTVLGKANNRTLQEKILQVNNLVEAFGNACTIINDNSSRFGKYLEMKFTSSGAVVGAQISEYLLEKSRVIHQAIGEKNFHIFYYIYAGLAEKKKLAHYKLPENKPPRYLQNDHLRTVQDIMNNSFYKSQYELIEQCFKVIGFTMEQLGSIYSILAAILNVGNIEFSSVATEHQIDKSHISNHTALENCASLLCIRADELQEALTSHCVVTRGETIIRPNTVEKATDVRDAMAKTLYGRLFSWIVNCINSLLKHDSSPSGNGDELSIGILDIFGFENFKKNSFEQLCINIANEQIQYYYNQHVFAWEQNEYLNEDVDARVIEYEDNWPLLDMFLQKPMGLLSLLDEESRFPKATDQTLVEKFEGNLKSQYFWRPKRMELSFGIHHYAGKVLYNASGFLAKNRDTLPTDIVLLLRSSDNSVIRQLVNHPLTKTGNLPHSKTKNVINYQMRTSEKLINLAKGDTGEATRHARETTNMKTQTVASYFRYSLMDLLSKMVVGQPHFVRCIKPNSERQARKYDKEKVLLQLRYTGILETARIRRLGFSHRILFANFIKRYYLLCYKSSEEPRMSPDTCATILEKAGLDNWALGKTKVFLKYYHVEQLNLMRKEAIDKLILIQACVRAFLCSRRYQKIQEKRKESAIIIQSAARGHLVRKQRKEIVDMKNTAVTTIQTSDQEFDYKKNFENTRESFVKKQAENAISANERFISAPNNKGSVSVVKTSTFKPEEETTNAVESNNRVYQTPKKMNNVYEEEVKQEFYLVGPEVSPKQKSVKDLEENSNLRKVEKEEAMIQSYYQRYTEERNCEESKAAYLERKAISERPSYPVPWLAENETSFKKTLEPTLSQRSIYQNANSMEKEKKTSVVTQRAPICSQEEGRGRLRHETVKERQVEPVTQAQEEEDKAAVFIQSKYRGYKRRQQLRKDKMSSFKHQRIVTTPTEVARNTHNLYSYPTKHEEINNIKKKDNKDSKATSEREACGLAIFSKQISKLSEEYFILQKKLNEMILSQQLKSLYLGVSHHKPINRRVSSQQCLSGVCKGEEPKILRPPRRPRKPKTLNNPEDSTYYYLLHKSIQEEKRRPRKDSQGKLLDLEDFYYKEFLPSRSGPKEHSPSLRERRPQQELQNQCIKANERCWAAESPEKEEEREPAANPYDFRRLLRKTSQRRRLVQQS"}, "[4]": {"target": "NTRK1 (human) (UniProt P04629)"}, "[5]": {"target": "CSNK1A1 (human) (UniProt P48729)"}, "[6]": {"target": "STK24 (human) (UniProt Q9Y6E0)"}, "[7]": {"test_system": "FLT3 (human), P36888 [R834Q]"}, "[8]": {"target": "AURKA (human) (UniProt O14965)"}, "[9]": {"target": "PLK2 (human) (UniProt Q9NYY3)", "sequence (Q9NYY3 whole entry, looked up)": "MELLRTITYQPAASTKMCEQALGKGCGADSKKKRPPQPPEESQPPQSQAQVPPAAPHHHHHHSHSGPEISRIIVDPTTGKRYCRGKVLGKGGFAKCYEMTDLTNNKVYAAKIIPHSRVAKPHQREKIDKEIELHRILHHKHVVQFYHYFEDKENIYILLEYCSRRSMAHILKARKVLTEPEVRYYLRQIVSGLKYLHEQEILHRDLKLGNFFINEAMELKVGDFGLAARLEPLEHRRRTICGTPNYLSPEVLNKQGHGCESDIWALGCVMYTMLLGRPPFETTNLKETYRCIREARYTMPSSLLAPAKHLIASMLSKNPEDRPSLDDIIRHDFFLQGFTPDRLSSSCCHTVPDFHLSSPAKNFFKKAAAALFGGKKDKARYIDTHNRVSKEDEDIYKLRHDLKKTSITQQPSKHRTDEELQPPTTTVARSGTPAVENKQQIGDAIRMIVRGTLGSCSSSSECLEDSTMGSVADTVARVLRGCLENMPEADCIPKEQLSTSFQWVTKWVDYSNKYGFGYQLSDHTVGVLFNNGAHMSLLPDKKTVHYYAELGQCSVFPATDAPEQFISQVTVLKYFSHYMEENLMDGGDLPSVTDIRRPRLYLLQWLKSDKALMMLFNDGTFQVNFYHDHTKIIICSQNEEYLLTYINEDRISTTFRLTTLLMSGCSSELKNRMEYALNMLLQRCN"}, "[10]": {"target": "CDK16 (human) (UniProt Q00536)"}, "[11]": {"target": "CDK8 (human) (UniProt P49336)"}, "[12]": {"target": "MYO3B (human) (UniProt Q8WXR4)"}, "[13]": {"target": "STK3 (human) (UniProt Q13188)"}, "[14]": {"target": "CAMK2B (human) (UniProt Q13554)"}, "[15]": {"target": "PAK4 (human) (UniProt O96013)"}, "[16]": {"target": "PRKACA (human) (UniProt P17612)"}, "[17]": {"target": "CLK2 (human) (UniProt P49760)"}, "[18]": {"target": "RIPK4 (human) (UniProt P57078)"}, "[19]": {"target": "TEC (human) (UniProt P42680)"}, "[20]": {"target": "FGFR3 (human) (UniProt P22607)"}, "[21]": {"target": "PLK1 (human) (UniProt P53350)"}, "[22]": {"target": "SRC (human) (UniProt P12931)", "sequence (P12931 whole entry, looked up)": "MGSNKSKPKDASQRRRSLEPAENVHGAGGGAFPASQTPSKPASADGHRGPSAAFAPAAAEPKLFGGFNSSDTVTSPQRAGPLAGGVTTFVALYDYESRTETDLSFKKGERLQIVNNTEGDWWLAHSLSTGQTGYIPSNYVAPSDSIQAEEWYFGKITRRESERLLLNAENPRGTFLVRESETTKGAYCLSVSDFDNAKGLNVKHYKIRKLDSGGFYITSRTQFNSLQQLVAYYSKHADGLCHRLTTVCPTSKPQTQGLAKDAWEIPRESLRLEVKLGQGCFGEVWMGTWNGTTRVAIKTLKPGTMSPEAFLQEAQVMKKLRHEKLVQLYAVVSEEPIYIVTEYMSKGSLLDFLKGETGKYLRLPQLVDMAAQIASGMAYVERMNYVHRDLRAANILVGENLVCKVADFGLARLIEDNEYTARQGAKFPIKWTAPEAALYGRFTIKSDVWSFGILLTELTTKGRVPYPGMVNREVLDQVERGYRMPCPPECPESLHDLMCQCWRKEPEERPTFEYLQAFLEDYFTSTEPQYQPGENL"}, "[23]": {"target": "MYLK3 (human) (UniProt Q32MK0)"}, "[24]": {"target": "MAP2K7 (human) (UniProt O14733)"}, "[25]": {"target": "MAPK11 (human) (UniProt Q15759)"}, "[26]": {"target": "DDR2 (human) (UniProt Q16832)"}, "[27]": {"target": "TGFBR2 (human) (UniProt P37173)"}, "[28]": {"target": "ADCK3 (human) (UniProt Q8NI60)", "sequence (Q8NI60 whole entry, looked up)": "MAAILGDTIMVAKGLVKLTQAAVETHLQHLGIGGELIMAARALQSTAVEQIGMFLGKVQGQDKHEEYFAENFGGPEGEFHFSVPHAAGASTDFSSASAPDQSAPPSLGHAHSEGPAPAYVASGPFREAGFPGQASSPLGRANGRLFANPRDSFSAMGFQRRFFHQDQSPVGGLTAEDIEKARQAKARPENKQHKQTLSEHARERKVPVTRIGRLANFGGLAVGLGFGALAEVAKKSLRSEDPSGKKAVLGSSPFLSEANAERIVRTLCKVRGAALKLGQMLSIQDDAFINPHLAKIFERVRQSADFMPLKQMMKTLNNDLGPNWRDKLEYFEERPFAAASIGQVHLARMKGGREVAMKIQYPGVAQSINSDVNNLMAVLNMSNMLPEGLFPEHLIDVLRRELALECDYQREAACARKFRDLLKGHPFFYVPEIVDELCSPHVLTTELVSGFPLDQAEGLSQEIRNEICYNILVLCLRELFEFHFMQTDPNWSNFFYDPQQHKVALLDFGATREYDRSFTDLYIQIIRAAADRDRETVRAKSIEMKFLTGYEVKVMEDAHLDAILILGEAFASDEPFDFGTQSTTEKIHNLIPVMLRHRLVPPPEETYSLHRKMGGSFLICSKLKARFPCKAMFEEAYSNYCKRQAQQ"}, "[29]": {"target": "FGFR4 (human) (UniProt P22455)"}, "[30]": {"target": "TNIK (human) (UniProt Q9UKE5)"}, "[31]": {"target": "YSK4 (human) (UniProt Q56UN5)"}, "[32]": {"target": "BRSK1 (human) (UniProt Q8TDC3)"}, "[33]": {"target": "LATS2 (human) (UniProt Q9NRM7)"}, "[34]": {"target": "PRKACB (human) (UniProt P22694)"}, "[35]": {"target": "MAP2K5 (human) (UniProt Q13163)"}, "[36]": {"target": "CDC2L2 (human) (UniProt Q9UQ88)"}, "[37]": {"target": "FLT4 (human) (UniProt P35916)"}, "[38]": {"target": "MUSK (human) (UniProt O15146)"}, "[39]": {"target": "MAPK7 (human) (UniProt Q13164)", "sequence (Q13164 whole entry, looked up)": "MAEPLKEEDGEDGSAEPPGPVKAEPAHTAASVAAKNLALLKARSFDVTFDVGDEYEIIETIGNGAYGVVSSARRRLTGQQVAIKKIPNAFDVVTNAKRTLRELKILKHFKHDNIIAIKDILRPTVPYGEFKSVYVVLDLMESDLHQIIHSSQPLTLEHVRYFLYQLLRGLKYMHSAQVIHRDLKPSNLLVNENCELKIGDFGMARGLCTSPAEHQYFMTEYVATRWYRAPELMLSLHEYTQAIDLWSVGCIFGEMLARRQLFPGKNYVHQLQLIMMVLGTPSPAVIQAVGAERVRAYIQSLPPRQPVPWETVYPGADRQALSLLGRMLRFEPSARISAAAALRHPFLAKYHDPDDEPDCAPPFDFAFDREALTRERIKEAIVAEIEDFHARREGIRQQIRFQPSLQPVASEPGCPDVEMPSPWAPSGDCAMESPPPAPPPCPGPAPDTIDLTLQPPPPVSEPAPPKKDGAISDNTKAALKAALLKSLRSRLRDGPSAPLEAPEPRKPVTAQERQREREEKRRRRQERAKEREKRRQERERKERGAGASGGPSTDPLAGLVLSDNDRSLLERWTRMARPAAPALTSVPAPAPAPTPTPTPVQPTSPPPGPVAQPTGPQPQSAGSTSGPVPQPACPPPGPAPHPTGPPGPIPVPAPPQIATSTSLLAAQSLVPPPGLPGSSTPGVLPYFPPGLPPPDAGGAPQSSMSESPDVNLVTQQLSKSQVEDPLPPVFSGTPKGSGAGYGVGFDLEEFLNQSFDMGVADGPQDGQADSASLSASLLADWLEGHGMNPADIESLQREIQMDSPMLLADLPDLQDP"}, "[40]": {"target": "TLK2 (human) (UniProt Q86UE8)"}, "[41]": {"target": "PRKCH (human) (UniProt P24723)"}}}
{"smiles": "O=c1cc(N2CCOCC2)oc2c(-c3cccc4c3sc3ccccc34)cccc12", "values": [{"measurement": "kinase still bound, per cent of control", "setting": "[1]", "result": 94, "unit": "%"}, {"measurement": "kinase still bound, per cent of control", "setting": "[2]", "result": 100, "unit": "%"}, {"measurement": "kinase still bound, per cent of control", "setting": "[3]", "result": 89, "unit": "%"}, {"measurement": "kinase still bound, per cent of control", "setting": "[4]", "result": 81, "unit": "%"}, {"measurement": "kinase still bound, per cent of control", "setting": "[5]", "result": 78, "unit": "%"}, {"measurement": "kinase still bound, per cent of control", "setting": "[6]", "result": 86, "unit": "%"}, {"measurement": "kinase still bound, per cent of control", "setting": "[7]", "result": 100, "unit": "%"}, {"measurement": "kinase still bound, per cent of control", "setting": "[8]", "result": 98, "unit": "%"}, {"measurement": "kinase still bound, per cent of control", "setting": "[9]", "result": 100, "unit": "%"}, {"measurement": "kinase still bound, per cent of control", "setting": "[10]", "result": 97, "unit": "%"}, {"measurement": "kinase still bound, per cent of control", "setting": "[11]", "result": 100, "unit": "%"}, {"measurement": "kinase still bound, per cent of control", "setting": "[12]", "result": 100, "unit": "%"}, {"measurement": "kinase still bound, per cent of control", "setting": "[13]", "result": 85, "unit": "%"}, {"measurement": "kinase still bound, per cent of control", "setting": "[14]", "result": 80, "unit": "%"}, {"measurement": "kinase still bound, per cent of control", "setting": "[15]", "result": 80, "unit": "%"}, {"measurement": "kinase still bound, per cent of control", "setting": "[16]", "result": 87, "unit": "%"}, {"measurement": "kinase still bound, per cent of control", "setting": "[17]", "result": 65, "unit": "%"}, {"measurement": "kinase still bound, per cent of control", "setting": "[18]", "result": 100, "unit": "%"}, {"measurement": "kinase still bound, per cent of control", "setting": "[19]", "result": 89, "unit": "%"}, {"measurement": "kinase still bound, per cent of control", "setting": "[20]", "result": 80, "unit": "%"}, {"measurement": "kinase still bound, per cent of control", "setting": "[21]", "result": 94, "unit": "%"}, {"measurement": "kinase still bound, per cent of control", "setting": "[22]", "result": 90, "unit": "%"}, {"measurement": "kinase still bound, per cent of control", "setting": "[23]", "result": 100, "unit": "%"}, {"measurement": "kinase still bound, per cent of control", "setting": "[24]", "result": 100, "unit": "%"}, {"measurement": "kinase still bound, per cent of control", "setting": "[25]", "result": 90, "unit": "%"}, {"measurement": "kinase still bound, per cent of control", "setting": "[26]", "result": 100, "unit": "%"}, {"measurement": "kinase still bound, per cent of control", "setting": "[27]", "result": 89, "unit": "%"}, {"measurement": "kinase still bound, per cent of control", "setting": "[28]", "result": 72, "unit": "%"}, {"measurement": "kinase still bound, per cent of control", "setting": "[29]", "result": 99, "unit": "%"}, {"measurement": "kinase still bound, per cent of control", "setting": "[30]", "result": 100, "unit": "%"}, {"measurement": "kinase still bound, per cent of control", "setting": "[31]", "result": 100, "unit": "%"}, {"measurement": "kinase still bound, per cent of control", "setting": "[32]", "result": 100, "unit": "%"}, {"measurement": "kinase still bound, per cent of control", "setting": "[33]", "result": 100, "unit": "%"}, {"measurement": "kinase still bound, per cent of control", "setting": "[34]", "result": 92, "unit": "%"}, {"measurement": "kinase still bound, per cent of control", "setting": "[35]", "result": 98, "unit": "%"}, {"measurement": "kinase still bound, per cent of control", "setting": "[36]", "result": 100, "unit": "%"}, {"measurement": "kinase still bound, per cent of control", "setting": "[37]", "result": 92, "unit": "%"}, {"measurement": "kinase still bound, per cent of control", "setting": "[38]", "result": 100, "unit": "%"}, {"measurement": "kinase still bound, per cent of control", "setting": "[39]", "result": 100, "unit": "%"}, {"measurement": "kinase still bound, per cent of control", "setting": "[40]", "result": 80, "unit": "%"}, {"measurement": "kinase still bound, per cent of control", "setting": "[41]", "result": 100, "unit": "%"}]}
{"smiles": "CCN1CCN(C(=O)Cc2ccc(Nc3ncc(F)c(Nc4ccc(C(=O)Nc5ccccc5Cl)cc4)n3)cc2)CC1", "values": [{"measurement": "kinase still bound, per cent of control", "setting": "[1]", "result": 60, "unit": "%"}, {"measurement": "kinase still bound, per cent of control", "setting": "[2]", "result": 100, "unit": "%"}, {"measurement": "kinase still bound, per cent of control", "setting": "[3]", "result": 100, "unit": "%"}, {"measurement": "kinase still bound, per cent of control", "setting": "[4]", "result": 19, "unit": "%"}, {"measurement": "kinase still bound, per cent of control", "setting": "[5]", "result": 96, "unit": "%"}, {"measurement": "kinase still bound, per cent of control", "setting": "[6]", "result": 32, "unit": "%"}, {"measurement": "kinase still bound, per cent of control", "setting": "[7]", "result": 36, "unit": "%"}, {"measurement": "kinase still bound, per cent of control", "setting": "[8]", "result": 0.5, "unit": "%"}, {"measurement": "kinase still bound, per cent of control", "setting": "[9]", "result": 88, "unit": "%"}, {"measurement": "kinase still bound, per cent of control", "setting": "[10]", "result": 40, "unit": "%"}, {"measurement": "kinase still bound, per cent of control", "setting": "[11]", "result": 46, "unit": "%"}, {"measurement": "kinase still bound, per cent of control", "setting": "[12]", "result": 100, "unit": "%"}, {"measurement": "kinase still bound, per cent of control", "setting": "[13]", "result": 100, "unit": "%"}, {"measurement": "kinase still bound, per cent of control", "setting": "[14]", "result": 72, "unit": "%"}, {"measurement": "kinase still bound, per cent of control", "setting": "[15]", "result": 47, "unit": "%"}, {"measurement": "kinase still bound, per cent of control", "setting": "[16]", "result": 42, "unit": "%"}, {"measurement": "kinase still bound, per cent of control", "setting": "[17]", "result": 4.9, "unit": "%"}, {"measurement": "kinase still bound, per cent of control", "setting": "[18]", "result": 31, "unit": "%"}, {"measurement": "kinase still bound, per cent of control", "setting": "[19]", "result": 42, "unit": "%"}, {"measurement": "kinase still bound, per cent of control", "setting": "[20]", "result": 20, "unit": "%"}, {"measurement": "kinase still bound, per cent of control", "setting": "[21]", "result": 94, "unit": "%"}, {"measurement": "kinase still bound, per cent of control", "setting": "[22]", "result": 18, "unit": "%"}, {"measurement": "kinase still bound, per cent of control", "setting": "[23]", "result": 100, "unit": "%"}, {"measurement": "kinase still bound, per cent of control", "setting": "[24]", "result": 100, "unit": "%"}, {"measurement": "kinase still bound, per cent of control", "setting": "[25]", "result": 81, "unit": "%"}, {"measurement": "kinase still bound, per cent of control", "setting": "[26]", "result": 100, "unit": "%"}, {"measurement": "kinase still bound, per cent of control", "setting": "[27]", "result": 100, "unit": "%"}, {"measurement": "kinase still bound, per cent of control", "setting": "[28]", "result": 43, "unit": "%"}, {"measurement": "kinase still bound, per cent of control", "setting": "[29]", "result": 71, "unit": "%"}, {"measurement": "kinase still bound, per cent of control", "setting": "[30]", "result": 45, "unit": "%"}, {"measurement": "kinase still bound, per cent of control", "setting": "[31]", "result": 7.2, "unit": "%"}, {"measurement": "kinase still bound, per cent of control", "setting": "[32]", "result": 88, "unit": "%"}, {"measurement": "kinase still bound, per cent of control", "setting": "[33]", "result": 100, "unit": "%"}, {"measurement": "kinase still bound, per cent of control", "setting": "[34]", "result": 76, "unit": "%"}, {"measurement": "kinase still bound, per cent of control", "setting": "[35]", "result": 9.8, "unit": "%"}, {"measurement": "kinase still bound, per cent of control", "setting": "[36]", "result": 95, "unit": "%"}, {"measurement": "kinase still bound, per cent of control", "setting": "[37]", "result": 7.6, "unit": "%"}, {"measurement": "kinase still bound, per cent of control", "setting": "[38]", "result": 11, "unit": "%"}, {"measurement": "kinase still bound, per cent of control", "setting": "[39]", "result": 100, "unit": "%"}, {"measurement": "kinase still bound, per cent of control", "setting": "[40]", "result": 33, "unit": "%"}, {"measurement": "kinase still bound, per cent of control", "setting": "[41]", "result": 100, "unit": "%"}]}
